Our source for the D and Time values is ChEMBL document CHEMBL1649527, “Daptomycin rapidly penetrates a Staphylococcus epidermidis biofilm” (Antimicrob Agents Chemother, 2009).

For data set [1], the system named is Staphylococcus epidermidis. Briefly: Permeability of rhodamine-tagged compound across Staphylococcus epidermidis RP62A biofilms assessed as diffusion coefficient at 23 degC by time lapse confocal scanning microscopy. The following applies: in vivo. The data set is classed as ADME, organism-based.
For data set [2], the system named is Staphylococcus epidermidis. The data set can be described thus: Permeability of unlabeled compound across Staphylococcus epidermidis RP62A biofilms assessed as diffusion coefficient at 23 degC by time lapse confocal scanning microscop. It counts as ADME, organism-based. The following applies: in vivo.
Data set [3] concerns Staphylococcus epidermidis. The data set can be described thus: Permeability of rhodamine-tagged compound across Staphylococcus epidermidis RP62A biofilms with 94 micrometer radial dimensions and 63 micrometer orthogonal dimensions assessed as time required for fluorescence intensity in centre of biofilm cluster to reach 50% of steady state maximum bulk fluid fluorescence intensity. The data set is classed as ADME, organism-based. The following applies: in vivo.

In data set [4] the test system is Staphylococcus epidermidis. Briefly: Permeability of Bodipy-tagged compound across Staphylococcus epidermidis RP62A biofilms assessed as diffusion coefficient at 23 degC by time lapse confocal scanning microscopy. It counts as ADME, organism-based. The settings on record: in vivo.
Data set [5] has as its system Staphylococcus epidermidis. Briefly: Permeability of rhodamine-tagged compound across Staphylococcus epidermidis RP62A biofilms with 217 micrometer radial dimensions and 115 micrometer orthogonal dimensions assessed as time required for fluorescence intensity in centre of biofilm cluster to reach 50% of steady state maximum bulk fluid fluorescence intensity. It counts as ADME, organism-based. The following applies: in vivo.

The subject of data set [6] is Staphylococcus epidermidis. The data set can be described thus: Permeability of Bodipy-tagged compound across Staphylococcus epidermidis RP62A biofilms with 278 micrometer radial dimensions and 168 micrometer orthogonal dimensions assessed as time required for fluorescence intensity in centre of biofilm cluster to reach 50% of steady state maximum bulk fluid fluorescence intensity. It counts as ADME, organism-based. The settings on record: in vivo.

Data set [7] relates to Staphylococcus epidermidis. The data set can be described thus: Permeability of Bodipy-tagged compound across Staphylococcus epidermidis RP62A biofilms with 223 micrometer radial dimensions and 153 micrometer orthogonal dimensions assessed as time required for fluorescence intensity in centre of biofilm cluster to reach 50% of steady state maximum bulk fluid fluorescence intensity. The data set is classed as ADME, organism-based. The following applies: in vivo.

Data set [8] concerns Staphylococcus epidermidis. The data set can be described thus: Permeability of Bodipy-tagged compound across Staphylococcus epidermidis RP62A biofilms with 181 micrometer radial dimensions and 103 micrometer orthogonal dimensions assessed as time required for fluorescence intensity in centre of biofilm cluster to reach 50% of steady state maximum bulk fluid fluorescence intensity. The data set is classed as ADME, organism-based. The following applies: in vivo.

A short description of data set [9]: Aqueous diffusion coefficient of rhodamine-tagged compound at 23 degC by time lapse confocal scanning microscopy. It counts as physicochemical. The settings on record: buffer.
Data set [10] has as its system Staphylococcus epidermidis. The data set can be described thus: Permeability of rhodamine-tagged compound across Staphylococcus epidermidis RP62A biofilms with 207 micrometer radial dimensions and 97 micrometer orthogonal dimensions assessed as time required for fluorescence intensity in centre of biofilm cluster to reach 50% of steady state maximum bulk fluid fluorescence intensity. The following applies: in vivo. The data set is classed as ADME, organism-based.

Data set [11] can be described thus: Aqueous diffusion coefficient of Bodipy-tagged compound at 23 degC by time lapse confocal scanning microscopy. The settings on record: buffer. The data set is classed as physicochemical.

Turning to `CCCCCCCCCC(=O)N[C@@H](Cc1c[nH]c2ccccc12)C(=O)N[C@H](CC(N)=O)C(=O)N[C@@H](CC(=O)O)C(=O)N[C@@H]1C(=O)NCC(=O)N[C@@H](CCCN)C(=O)N[C@@H](CC(=O)O)C(=O)N[C@H](C)C(=O)N[C@@H](CC(=O)O)C(=O)NCC(=O)N[C@H](CO)C(=O)N[C@@H]([C@H](C)CC(=O)O)C(=O)N[C@@H](CC(=O)c2ccccc2N)C(=O)O[C@@H]1C`, the D in data set [1] is 4.7 ×10⁻⁷ cm2/sec; in data set [2], 0.78 ×10⁻⁶ cm2/s; in data set [4], 5.2 ×10⁻⁷ cm2/sec; in [9], 1.78 ×10⁻⁶ cm2/s; in data set [11] it was 1.73 ×10⁻⁶ cm2/s. Besides, the Time in data set [3] is 26 s; in data set [5], 140 s; in data set [6], 210 s; in data set [7], 60 s; in data set [8] it was 67 s; in [10] it was 40 s.
